# Tests used:
# Assay in all cases: Broth microdilution MIC (Table 2)
# Type in all cases: cell-based
# [1] = tested on: Acinetobacter baumannii ATCC 19606 (non-MDR); conditions: ATCC19606, read-out: MIC
# Procedure: (§1) Each peptide was formulated in PBS buffer prior to testing. Peptides of SEQ ID NO:5 and SEQ ID NO:8 were brought up in 100% DMSO with 0.002% polysorbate-80 at 1.28 mg/mL (40× the highest final test concentration of 32 mcg/mL). Final test concentration of DMSO was 2.5% in the assay at the first dilution for those two compounds.
# (§2) Mueller Hinton II broth (MHB II; BD; Lot Nos. 6258541 and 7143896) was used for MIC testing of aerobic organisms. 0.002% polysorbate 80 (P80) was added to the test medium.
# (§3) MIC values were determined using a broth microdilution procedure described by CLSI (1, 3). Automated liquid handlers (Multidrop 384, Labsystems, Helsinki, Finland; Biomek 2000 and Biomek FX, Beckman Coulter, Fullerton Calif.) were used to conduct serial dilutions and liquid transfers.
# (§4) To prepare the drug mother plates, which would provide the serial peptide dilutions for the replicate daughter plates, the wells of columns 2-12 of standard 96-well microdilution plates (Costar 3795) were filled with 150 μl of the designated diluent for each row of peptide. The test articles and comparator compounds (300 μl at 40× the highest concentration to be tested) were dispensed into the appropriate wells in column 1. The Biomek 2000 was then used to make 2-fold serial dilutions in the mother plates from column 1 through column 11. The wells of Column 12 contained no drug and served as the organism growth control wells for the assay.
# (§5) The daughter plates were loaded with 185 μL per well of MHB II using the Multidrop 384. The daughter plates were completed on the Biomek FX instrument which transferred 5 uL of peptide solution from each well of a mother plate to the corresponding well of each daughter plate in a single step. A standardized inoculum of each test organism was prepared per CLSI methods. The inoculum for each organism was dispensed into sterile reservoirs divided by length (Beckman Coulter), and the Biomek 2000 was used to inoculate the plates. Daughter plates were placed on the Biomek 2000 work surface in reverse orientation so that inoculation took place from low to high drug concentration. The plates were then inoculated with 10 μL of the inoculum resulting in a final cell density of approximately 5×10^5 CFU/mL, per well.
# (§6) Plates were stacked 3-4 high, covered with a lid on the top plate, placed in plastic bags, and incubated at 35° C. for 16 to 20 hrs. Following incubation, the microplates were removed from the incubator and viewed from the bottom using a plate viewer. […] The MIC was read and recorded as the lowest concentration of peptide that inhibited visible growth of the organism.
# [2] = tested on: Acinetobacter baumannii ATCC BAA-1797 (MDR); conditions: ATCCBAA1797, read-out: MIC
# Procedure: as §1, §2, §3, §4, §5, §6
# [3] = tested on: Enterococcus faecalis ATCC 29212 (VSE; QC); conditions: ATCC29212, read-out: MIC
# Procedure: as §1, §2, §3, §4, §5, §6
# [4] = tested on: Enterococcus faecalis ATCC 700802 (V583 VRE); conditions: read-out: MIC
# Procedure: as §1, §2, §3, §4, §5, §6
# [5] = tested on: Escherichia coli ATCC BAA-2471 (NDM-1); conditions: ATCCBAA2471
# Procedure: as §1, §2, §3, §4, §5, §6
# [6] = tested on: Klebsiella pneumoniae ATCC BAA-1705 (KPC); conditions: ATCCBAA1705
# Procedure: as §1, §2, §3, §4, §5, §6
# [7] = tested on: Pseudomonas aeruginosa ATCC BAA-2109 (MDR); conditions: ATCCBAA2109
# Procedure: as §1, §2, §3, §4, §5, §6
# [8] = tested on: Staphylococcus aureus ATCC 29213 (MSSA; QC); conditions: read-out: MIC
# Procedure: as §1, §2, §3, §4, §5, §6
# [9] = tested on: Staphylococcus aureus NRS382 (USA100; HA-MRSA); conditions: read-out: MIC
# Procedure: as §1, §2, §3, §4, §5, §6
# [10] = tested on: Streptococcus agalactiae ATCC 13813; conditions: ATCC13813, read-out: MIC
# Procedure: as §1, §2, §3, §4, §5, §6
# [11] = tested on: Streptococcus pneumoniae ATCC 49619 (QC); conditions: ATCC49619, read-out: MIC
# Procedure: as §1, §2, §3, §4, §5, §6
# [12] = tested on: Streptococcus pyogenes ATCC 49399; conditions: ATCC49399, read-out: MIC
# Procedure: as §1, §2, §3, §4, §5, §6
structure (smiles),measurement,setting,value
C[C@H]1COc2c(N3CCN(C)CC3)c(F)cc3c(=O)c(C(=O)O)cn1c23 [Levofloxacin],MIC,[1],0.25 µg/mL
same,MIC,[2],0.25 µg/mL
same,MIC,[3],1 µg/mL
same,MIC,[4],0.5 µg/mL
same,MIC,[5],64 µg/mL
same,MIC,[6],64 µg/mL
same,MIC,[7],1 µg/mL
same,MIC,[8],0.25 µg/mL
same,MIC,[9],8 µg/mL
same,MIC,[10],0.5 µg/mL
same,MIC,[11],1 µg/mL
same,MIC,[12],0.5 µg/mL
